For one experiment, the target named is T1, human SCD5 (Homo sapiens, UniProt Q86SK9).
T1 construct: host or cells: S. cerevisiae ole1Δ strain (W303 pdr1Δ pdr3Δ background), plasmid pRS316 with TDH3 promoter and CYC1 terminator
T1 sequence (Q86SK9 1-330): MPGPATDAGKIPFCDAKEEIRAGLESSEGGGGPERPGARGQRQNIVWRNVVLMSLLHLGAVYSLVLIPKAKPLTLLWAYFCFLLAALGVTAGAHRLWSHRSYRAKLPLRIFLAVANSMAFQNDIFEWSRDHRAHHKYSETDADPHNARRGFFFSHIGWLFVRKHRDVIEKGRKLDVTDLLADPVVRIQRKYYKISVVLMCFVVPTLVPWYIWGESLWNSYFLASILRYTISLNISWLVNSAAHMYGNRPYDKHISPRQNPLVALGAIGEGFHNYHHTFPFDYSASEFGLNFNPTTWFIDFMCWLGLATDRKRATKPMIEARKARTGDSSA
Briefly: Growth of humanized yeast surviving solely on human SCD5. Format: cell-based. The conditions noted are these: growth inhibition. From the text: To generate yeast strains expressing SCD1 or SCD5 as the sole desaturase, the human SCD1 and SCD5 genes were cloned from cDNAs (Harvard PlasmID database Clone ID HsCD00340237 for SCD1 and HsCD00342695 for SCD5) into yeast plasmid pRS316 (ATCC 77145) between the yeast TDH3 promoter and the CYC1 terminator. The coding sequence of yeast OLE1 was also cloned into this plasmid). These clones were then transformed into the ole1d strain and plated on CSM-Ura media (CSM lacking uracil) with 2% glucose (w/v) and independent colonies were isolated and amplified.
For experiments using a plasmid-borne copy of Ole1, SCD1, or SCD5 (FIGS. 3B, 6, and 7), media lacking uracil (SX-Ura, where X is glucose, raffinose, or galactose), was used for all steps of the compound profiling protocol to ensure its maintenance throughout the assay.
After yeast delivery, assay plates were incubated under humidified conditions at 30° C. for 24 to 40 h. ApoE4 rescue experiments were stopped at 24 h, aSyn experiments at 40 h, Ole1 at 24 h, and SCD1/SCD5 at 40 h. The growth of yeast was monitored by reading the OD600 of each well using a microplate reader (Perkin Elmer EnVision™). For model rescue experiments, raw data were processed by background subtracting and calculating a fold-change relative to DMSO control [(EXP-0.035)/(DMSO-0.035)—where 0.035 is the OD600 contributed by an empty well containing 30 μL of media alone]. For growth inhibition of wild-type cells, raw data were processed by background subtracting and converting values to a percent of the nontreated condition for that strain [(EXP-0.035)/(DMSO-0.035)×100%].

The subject of another experiment is SCD. Briefly: Fatty acid saturation in guinea pig brain after oral administration of SCD inhibitors (GC-FID of FAME). The format is in vivo. The conditions noted are these: 25 mg/kg orally twice daily for 5 days; brain 4 h after last dose; vs vehicle. How it is done:
FIG. 18A-18F are a series of graphs showing an evaluation of fatty acid saturation in guinea pig brain after oral administration of SCD inhibitors. Guinea pigs were dosed orally with SCD inhibitors twice daily (every 12 hours) for 5 days. Guinea pigs were dosed with vehicle, SCD5 Selective Inhibitor 1 (“SCD5-SI-1”), SCD5 Selective Inhibitor 2 (“SCD5-SI-2”), CAY10566 (“CAY”) or SCD1/SCD5 Inhibitor 1 (“SCD1/5-1”), all compounds at 25 mg/kg with a volume-matched vehicle control. Four hours after the last dose on day 5, guinea pigs were sacrificed, and brains were removed after whole-body saline perfusion. […] Samples were evaluated on a gas chromatograph with a flame ionization detector (GC-FID) to quantify a comprehensive panel of fatty acid species. Brain samples were evaluated for levels of 16 (FIG. 18A) and 18 (FIG. 18B) carbon-containing fatty acids (C16, C18 respectively), and the desaturation index (DI) was calculated by taking the ratio of desaturated to saturated fatty acid for each species. […] Brain samples were evaluated for the relative levels of the positional isomers of C16, including C16:1 n7 palmitoleic acid (FIG. 18C) or C16:1 n9 monounsaturated fatty acids (FIG. 18D). […] Data was analyzed by one-way ANOVA with Tukey's post-hoc test to account for multiple comparisons. **p<0.01, ***p<0.005, ****p<0.0001. […]

`Cc1nnc(-c2ccc(N3CCC(Oc4cc(F)ccc4Cl)CC3)nn2)o1` [CAY10566]: the “half-maximal inhibitory concentration (IC50), SCD5 humanized strain” value at human SCD5 is on record as “low nanomolar”. In addition, the “C16 desaturation index (DI) in brain” value in the experiment on SCD is reported as “decreased”.

Source of the values: US10973810B2, “Methods for the treatment of neurological disorders” (Yumanity Therapeutics, Inc., priority 2017, dated 2021).
